Drawing on patent US12421210B2, “Fused bicyclic heterocycles as therapeutic agents” (NEW YORK UNIVERSITY, priority 2018, dated 2025), this text covers IC50 for 31 compounds.

Molecules are shown by their SMILES. Where only a bound is given, the exact number is not on record here.

The first assay deals with human NAMPT enzyme (His-hNAMPT) (Homo sapiens (Human), UniProt P43490). Kind of assay: NAMPT enzymatic inhibition assay (fluorescence, NADH product). The format is biochemical. As to conditions: [BPS]; read-out: NAMPT IC50 (μM) [BPS].
Chain of human NAMPT enzyme (His-hNAMPT) (P43490 whole entry): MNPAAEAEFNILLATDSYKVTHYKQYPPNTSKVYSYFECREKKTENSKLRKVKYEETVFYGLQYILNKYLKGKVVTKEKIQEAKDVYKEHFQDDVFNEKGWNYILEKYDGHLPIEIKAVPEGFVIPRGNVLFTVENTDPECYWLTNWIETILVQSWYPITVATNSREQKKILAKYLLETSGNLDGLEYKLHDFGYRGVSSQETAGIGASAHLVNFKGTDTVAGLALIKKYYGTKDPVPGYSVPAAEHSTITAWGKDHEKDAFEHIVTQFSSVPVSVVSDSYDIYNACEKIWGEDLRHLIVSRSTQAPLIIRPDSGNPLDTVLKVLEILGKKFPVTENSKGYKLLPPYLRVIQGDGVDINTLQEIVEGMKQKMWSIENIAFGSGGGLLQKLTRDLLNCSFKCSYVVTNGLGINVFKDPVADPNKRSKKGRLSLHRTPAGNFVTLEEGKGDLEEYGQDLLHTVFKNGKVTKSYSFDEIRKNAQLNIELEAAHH
In the case of `Nc1ccc(/C=C/C(=O)NCC[C@@H]2[C@H]3CN(c4ccccc4)C[C@@H]23)cn1` [Example 192, (E)-3-(6-aminopyridin-3-yl)-N-(2-((1R,5S,6s)-3-phenyl-3-azabicyclo[3.1.0]hexan-6-yl)ethyl)acrylamide], the IC50 – broadly, the concentration needed to halve the response being measured – was in the range of 0.01 to 0.49 µM.

Still in this assay, the particulars now being: [HDB]; read-out: NAMPT IC50 (μM) [HDB].
`O=C(NCC[C@@H]1[C@H]2CN(c3ccccc3)C[C@@H]12)c1cc2ccncc2o1` [Example 193, N-(2-((1R,5S,6s)-3-phenyl-3-azabicyclo[3.1.0]hexan-6-yl)ethyl)furo[2,3-c]pyridine-2-carboxamide]: the half-inhibitory concentration (IC50) is less than 0.01 µM. As to `O=C(NCC[C@@H]1[C@H]2CN(c3ncccn3)C[C@@H]12)c1cc2cnccc2[nH]1` [Example 194, N-(2-((1R,5S,6s)-3-(pyrimidin-2-yl)-3-azabicyclo[3.1.0]hexan-6-yl)ethyl)-1H-pyrrolo[3,2-c]pyridine-2-carboxamide], the IC50 lay within 0.01 to 0.49 µM. On the same count and under the same terms, under `O=C(/C=C/c1cccnc1)NCC[C@@H]1[C@H]2CN(c3ccc(F)cc3)C[C@@H]12` [Example 195, (E)-N-(2-((1R,5S,6s)-3-(4-fluorophenyl)-3-azabicyclo[3.1.0]hexan-6-yl)ethyl)-3-(pyridin-3-yl)acrylamide] stands 0.01 to 0.49 µM. Still for that read-out and setting: under `O=C(NCC[C@@H]1[C@H]2CN(c3ccc(F)cc3)C[C@@H]12)c1cc2ccncc2o1` [Example 196, N-(2-((1R,5S,6s)-3-(4-fluorophenyl)-3-azabicyclo[3.1.0]hexan-6-yl)ethyl)furo[2,3-c]pyridine-2-carboxamide] stands 0.01 to 0.49 µM.

For `O=C(NCC[C@@H]1[C@H]2CN(c3cccc(F)c3)C[C@@H]12)c1cc2ccncc2o1` [Example 197, N-(2-((1R,5S,6s)-3-(3-fluorophenyl)-3-azabicyclo[3.1.0]hexan-6-yl)ethyl)furo[2,3-c]pyridine-2-carboxamide], the 50% inhibitory concentration (IC50) was in the range of 0.01 to 0.49 µM. `O=C(NCC[C@@H]1[C@H]2CN(c3ccccc3)C[C@@H]12)c1cc2cnccc2[nH]1` [Example 198, N-(2-((1R,5S,6s)-3-phenyl-3-azabicyclo[3.1.0]hexan-6-yl)ethyl)-1H-pyrrolo[3,2-c]pyridine-2-carboxamide]: the concentration for half-maximal inhibition (IC50) lay within 0.01 to 0.49 µM.

Consider `O=C(NCC[C@@H]1[C@H]2CN(c3ncccn3)C[C@@H]12)c1cnc2nccn2c1` [Example 199, N-(2-((1R,5S,6s)-3-(pyrimidin-2-yl)-3-azabicyclo[3.1.0]hexan-6-yl)ethyl)imidazo[1,2-a]pyrimidine-6-carboxamide], for which the IC50 was 0.01 to 0.49 µM. Still for that read-out and setting: the figure for `O=C(NCC[C@@H]1[C@H]2CN(c3ncccn3)C[C@@H]12)c1cc2ccncc2s1` [Example 200, N-(2-((1R,5S,6s)-3-(pyrimidin-2-yl)-3-azabicyclo[3.1.0]hexan-6-yl)ethyl)thieno[2,3-c]pyridine-2-carboxamide] is 0.01 to 0.49 µM. On the same count and under the same terms, the figure for `Nc1ccc(/C=C/C(=O)NCC[C@@H]2[C@H]3CN(c4cccc(F)c4)C[C@@H]23)cn1` [Example 201, (E)-3-(6-aminopyridin-3-yl)-N-(2-((1R,5S,6s)-3-(3-fluorophenyl)-3-azabicyclo[3.1.0]hexan-6-yl)ethyl)acrylamide] is less than 0.01 µM; for `Nc1ccc(/C=C/C(=O)NCC[C@@H]2[C@H]3CN(c4cccc(C(F)(F)F)c4)C[C@@H]23)cn1` [Example 202, (E)-3-(6-aminopyridin-3-yl)-N-(2-((1R,5S,6s)-3-(3-(trifluoromethyl)phenyl)-3-azabicyclo[3.1.0]hexan-6-yl)ethyl)acrylamide] it is 0.01 to 0.49 µM; for `O=C(NCC[C@@H]1[C@H]2CN(c3nc(Cl)ncc3F)C[C@@H]12)c1ccc2nccn2c1` [Example 203, N-(2-((1R,5S,6s)-3-(2-chloro-5-fluoropyrimidin-4-yl)-3-azabicyclo[3.1.0]hexan-6-yl)ethyl)imidazo[1,2-a]pyridine-6-carboxamide] it is 0.01 to 0.49 µM. Same read-out and setting: under `O=C(NCC[C@@H]1[C@H]2CN(c3nc(Cl)ncc3F)C[C@@H]12)c1cc2cnccc2[nH]1` [Example 204, N-(2-((1R,5S,6s)-3-(2-chloro-5-fluoropyrimidin-4-yl)-3-azabicyclo[3.1.0]hexan-6-yl)ethyl)-1H-pyrrolo[3,2-c]pyridine-2-carboxamide] stands 0.01 to 0.49 µM; under `Nc1ccc(/C=C/C(=O)NCC[C@@H]2[C@H]3CN(c4nc(Cl)ncc4F)C[C@@H]23)cn1` [Example 206, (E)-3-(6-aminopyridin-3-yl)-N-(2-((1R,5S,6s)-3-(2-chloro-5-fluoropyrimidin-4-yl)-3-azabicyclo[3.1.0]hexan-6-yl)ethyl)acrylamide], 0.01 to 0.49 µM; under `O=C(CCc1cccnc1)NCC[C@@H]1[C@H]2CN(c3nc(Cl)ncc3F)C[C@@H]12` [Example 207, N-(2-((1R,5S,6s)-3-(2-chloro-5-fluoropyrimidin-4-yl)-3-azabicyclo[3.1.0]hexan-6-yl)ethyl)-3-(pyridin-3-yl)propanamide], less than 0.01 µM. As to `O=C(NCC[C@@H]1[C@H]2CN(c3nc(Cl)ncc3F)C[C@@H]12)c1cc(-c2cccnc2)on1` [Example 208, N-(2-((1R,5S,6s)-3-(2-chloro-5-fluoropyrimidin-4-yl)-3-azabicyclo[3.1.0]hexan-6-yl)ethyl)-5-(pyridin-3-yl)isoxazole-3-carboxamide], the IC50 is less than 0.01 µM. For the compound `O=C(/C=C/c1ccccn1)NCC[C@@H]1[C@H]2CN(c3nc(Cl)ncc3F)C[C@@H]12` [Example 209, (E)-N-(2-((1R,5S,6s)-3-(2-chloro-5-fluoropyrimidin-4-yl)-3-azabicyclo[3.1.0]hexan-6-yl)ethyl)-3-(pyridin-2-yl)acrylamide], the IC50 was 0.01 to 0.49 µM. Same read-out and setting: under `O=C(/C=C/c1ccccc1)NCC[C@@H]1[C@H]2CN(c3nc(Cl)ncc3F)C[C@@H]12` [Example 210, N-(2-((1R,5S,6s)-3-(2-chloro-5-fluoropyrimidin-4-yl)-3-azabicyclo[3.1.0]hexan-6-yl)ethyl)cinnamamide] stands 0.01 to 0.49 µM; under `O=C(/C=C/c1ccc(O)nc1)NCC[C@@H]1[C@H]2CN(c3nc(Cl)ncc3F)C[C@@H]12` [Example 211, (E)-N-(2-((1R,5S,6s)-3-(2-chloro-5-fluoropyrimidin-4-yl)-3-azabicyclo[3.1.0]hexan-6-yl)ethyl)-3-(6-hydroxypyridin-3-yl)acrylamide], 0.01 to 0.49 µM; under `COc1ccc(/C=C/C(=O)NCC[C@@H]2[C@H]3CN(c4nc(Cl)ncc4F)C[C@@H]23)cn1` [Example 212, (E)-N-(2-((1R,5S,6s)-3-(2-chloro-5-fluoropyrimidin-4-yl)-3-azabicyclo[3.1.0]hexan-6-yl)ethyl)-3-(6-methoxypyridin-3-yl)acrylamide], 0.01 to 0.49 µM. Still for that read-out and setting: under `O=C(NCC[C@@H]1[C@H]2CN(c3nc(Cl)ncc3F)C[C@@H]12)c1cnc2nccn2c1` [Example 213, N-(2-((1R,5S,6s)-3-(2-chloro-5-fluoropyrimidin-4-yl)-3-azabicyclo[3.1.0]hexan-6-yl)ethyl)imidazo[1,2-a]pyrimidine-6-carboxamide] stands 0.01 to 0.49 µM. The same measure, in the same setting: under `O=C(/C=C/c1ccncc1)NCC[C@@H]1[C@H]2CN(c3nc(Cl)ncc3F)C[C@@H]12` [Example 214, (E)-N-(2-((1R,5S,6s)-3-(2-chloro-5-fluoropyrimidin-4-yl)-3-azabicyclo[3.1.0]hexan-6-yl)ethyl)-3-(pyridin-4-yl)acrylamide] stands 0.01 to 0.49 µM. Regarding `O=C(CCc1ccncc1)NCC[C@@H]1[C@H]2CN(c3nc(Cl)ncc3F)C[C@@H]12` [Example 215, N-(2-((1R,5S,6s)-3-(2-chloro-5-fluoropyrimidin-4-yl)-3-azabicyclo[3.1.0]hexan-6-yl)ethyl)-3-(pyridin-4-yl)propanamide], the half-inhibitory concentration (IC50) fell in the range of 1 to 29 µM. For the compound `O=C(NCC[C@@H]1[C@H]2CN(c3nc(Cl)ncc3F)C[C@@H]12)c1ccc2ncnn2c1` [Example 217, N-(2-((1R,5S,6s)-3-(2-chloro-5-fluoropyrimidin-4-yl)-3-azabicyclo[3.1.0]hexan-6-yl)ethyl)-[1,2,4]triazolo[1,5-a]pyridine-6-carboxamide], the IC50 lay in the range of 0.01 to 0.49 µM. Regarding `O=C(CCc1ccccn1)NCC[C@@H]1[C@H]2CN(c3nc(Cl)ncc3F)C[C@@H]12` [Example 218, N-(2-((1R,5S,6s)-3-(2-chloro-5-fluoropyrimidin-4-yl)-3-azabicyclo[3.1.0]hexan-6-yl)ethyl)-3-(pyridin-2-yl)propanamide], the 50% inhibitory concentration (IC50) lay in the range of 0.01 to 0.49 µM. Still for that read-out and setting: under `O=C(COc1cccnc1)NCC[C@@H]1[C@H]2CN(c3nc(Cl)ncc3F)C[C@@H]12` [Example 219, N-(2-((1R,5S,6s)-3-(2-chloro-5-fluoropyrimidin-4-yl)-3-azabicyclo[3.1.0]hexan-6-yl)ethyl)-2-(pyridin-3-yloxy)acetamide] stands 0.01 to 0.49 µM; under `O=C(NCC[C@@H]1[C@H]2CN(c3nc(Cl)ncc3F)C[C@@H]12)c1cc2c(nc3sccn32)s1` [Example 220, N-(2-((1R,5S,6s)-3-(2-chloro-5-fluoropyrimidin-4-yl)-3-azabicyclo[3.1.0]hexan-6-yl)ethyl)thieno[2′,3′:4,5]imidazo[2,1-b]thiazole-2-carboxamide], 0.01 to 0.49 µM; under `O=C(NCC[C@@H]1[C@H]2CN(c3nc(Cl)ncc3F)C[C@@H]12)c1cc2ccncc2o1` [Example 221, N-(2-((1R,5S,6s)-3-(2-chloro-5-fluoropyrimidin-4-yl)-3-azabicyclo[3.1.0]hexan-6-yl)ethyl)furo[2,3-c]pyridine-2-carboxamide], 0.01 to 0.49 µM. Still for that read-out and setting: under `O=C(NCC[C@@H]1[C@H]2CN(c3nc(Cl)ncc3F)C[C@@H]12)c1cc2ccncc2s1` [Example 223, N-(2-((1R,5S,6s)-3-(2-chloro-5-fluoropyrimidin-4-yl)-3-azabicyclo[3.1.0]hexan-6-yl)ethyl)thieno[2,3-c]pyridine-2-carboxamide] stands 0.01 to 0.49 µM. On the same count and under the same terms, the figure for `O=C(NCC[C@@H]1[C@H]2CN(c3nc(Cl)ncc3F)C[C@@H]12)c1cnc2[nH]ncc2c1` [Example 224, N-(2-((1R,5S,6s)-3-(2-chloro-5-fluoropyrimidin-4-yl)-3-azabicyclo[3.1.0]hexan-6-yl)ethyl)-1H-pyrazolo[3,4-b]pyridine-5-carboxamide] is 0.01 to 0.49 µM; for `O=C(NCC[C@@H]1[C@H]2CN(c3nc(Cl)ncc3F)C[C@@H]12)N1Cc2ccccc2C1` [Example 225, N-(2-((1R,5S,6s)-3-(2-chloro-5-fluoropyrimidin-4-yl)-3-azabicyclo[3.1.0]hexan-6-yl)ethyl)isoindoline-2-carboxamide] it is less than 0.01 µM.
